One data set concerns rat hind paws. As to the kind of experiment: Hematoxylin & eosin staining, immune cells and gait in incisional pain model. It counts as in vivo. On the procedure:
(A) Animals were treated as previously stated in the Methods section. However, no behavior was collected, instead, animals were sacrificed via transcardial perfusion, and tissue was collected for staining. (Top) Representative images depicting hematoxylin & eosin staining of rat hind paws in scrambled (n=2) and AP2 inhibitory peptide groups (n=2). Localized immune cells can be observed in the dermis in each condition. (Bottom) 24 hours following incision, there is a rapid increase in the number of immune cells. […] (B) Representative images of incision site in animals that received either the scrambled peptide (top) or AP2 inhibitory peptide (bottom). Black arrows highlight significant granuloma-like structures.

The target in a further data set is AP2 complex (Homo sapiens, UniProt O94973+P53680). The note with it: peptide sequence derived from human CD4 di-leucine motif; read-out: affinity for the AP2 complex; cited from earlier work.
Data set [1] has as its system C57BL/6 mice. Put plainly: Formalin acute inflammatory pain assay. The data set is classed as in vivo, mouse. On the procedure:
Formalin Assay. Male and female C57BL/6 mice were randomly assigned to either control or experimental groups. Animals were habituated to the formalin testing chamber for 30 minutes or until exploratory behavior ceased the day of experimentation. Following the habituation period, animals were removed from the chamber and given an intraplantar injection of 5% formalin into the ipsilateral hind paw, then immediately placed back into the testing chamber and recorded. Animals were recorded for at least 90 minutes after formalin injection using Active WebCam software. Videos were subsequently scored for number of paw licks, number of paw lifts, and number of full body flinches. All behaviors were scored for a full minute, every five minutes, for 90 minutes of video recording.
Formalin Assay: Male and female C57BL/6 mice were randomly assigned to either control or experimental groups. […] Following the habituation period, animals were removed from the chamber and given an intraplantar injection of 5% formalin into the ipsilateral hind paw, then immediately placed back into the testing chamber and recorded. Animals were recorded for at least 90 minutes after formalin injection using Active WebCam software. Videos were subsequently scored for number of paw licks, number of paw lifts, and number of full body flinches. […]

Data set [2] has as its system C57BL/6 mice. As to the kind of experiment: CFA-induced inflammatory pain, thermal sensitivity (Hargreaves). It counts as in vivo, mouse. The conditions noted are these: for tau (τ), time constant of thermal sensitivity recovery: time in days. On the procedure:
Freund's Complete Adjuvant Chronic Pain Model. C57BL/6 mice were anesthetized (induction: 3%, maintenance: 2%) and placed in a prone position. After the animals were under a surgical plane of anesthesia, denoted by a loss of reaction to both a tail and hind paw pinch, they received a 20 μL injection of Imject™ Freund's Complete Adjuvant (FCA; Thermo Fisher Scientific) and allowed to recover. Behavior testing resumed 24 hours post FCA injection. Each cohort of animals received FCA from previously unopened, vacuum sealed glass ampules to minimize variations between groups.
Hargreaves Assay. Animals were placed on an enclosed elevated frosted glass platform (Ugo Baseline) and allowed 30 minutes for habituation. Once exploratory behavior ceased, an automatic Hargreaves apparatus was maneuvered (Ugo Baseline) underneath the hind paw(s) of the animals. Paw withdrawal latency was calculated as the average of four trials per hind limb. Each trial was followed by a 5-minute latency period to allow adequate recovery time between trials.
Complete Freund's Adjuvant Induced Inflammatory Pain: Male and female C57BL/6 mice were randomized into experimental and control groups. In order to maintain consistency in regards to site of injection, mice were anesthetized and injected with a 32-gauge disposable syringe filled with 20 μL of Imject™ Complete Freund's Adjuvant (Thermo Fisher Scientific) into the plantar surface of the right hind paw and allowed to recover. Behavior testing resumed 24 hours post-CFA injection at which point the animals received a 20 μL intraplantar injection of 100 μM (3.154 μg total) lipidated peptidomimetic immediately after the conclusion of day 1 behavioral testing. In order to minimize experimental error between groups, each group of animals received CFA from previously unopened, vacuum-sealed glass ampules ensuring CFA of identical specific activity.
(§1) Thermal Sensitivity Testing: Prior to testing, animals were allowed to habituate to the testing room for 1 hour on each day. Animals were placed on an enclosed elevated frosted glass platform (Ugo Baseline) and allowed 30 minutes for habituation. Once exploratory behavior ceased, an automatic Hargreaves apparatus was maneuvered (Ugo Basile) underneath the hind paw(s) of the animals. Paw withdrawal latency was calculated as the average of four trials per hind limb. Each trial was followed by a 5-minute latency period to allow adequate recovery time between trials.

Another data set has as its system rats. Put plainly: Incisional post-operative pain model, thermal sensitivity. The data set is classed as in vivo, rat. The conditions noted are these: for tau (τ), rate of recovery following incision: exponential decay fit, time in days. The protocol: Incisional post-operative pain model: To model post-operative pain, an established rat incisional model was used. In short, male and female rats were randomized into either experimental or control groups. On the day of surgery, the animals were anesthetized and placed into a prone position. Once the animal was under a surgical plane of anesthesia, a 200 μL intraplantar injection of 100 μM (31.54 μg total) lipidated peptidomimetic was made into the ipsilateral hind paw. Afterwards, the animals were returned to their home cage and allowed to recover. On the same day, 6 hours after the pre-injection, the animals were anaesthetized, placed into a prone position, and prepared for incision injury. The ipsilateral hind paw was sterilized using successive swabs of chlorohexidine, 70% ethanol, and iodine. Then, using a size 10 scalpel, a 1 cm long incision was made into the plantar surface of the ipsilateral hind paw. Short, yet firm, strokes were used to make incisions through the skin, fascia, and muscle of the hind paw. Following incision, two 50 μL injections, containing 100 μM (7.885 μg per injection) of the lipidated peptidomimetic, were made into each “half” of the incised plantar muscle. Following injection into the muscle, the skin was sutured using 6/0 silk sutures (Ethicon) in a continuous manner to discourage removal of sutures. Upon conclusion of suturing, four 25 μL injections containing 100 μM (3.9425 μg per injection) of the lipidated peptidomimetic, were made into a “quadrant” adjacent to the incision. Finally, the animals were returned to their home cage and allowed to recover for at least 16 hours.
as §1

Where [3] appears, read: single i.pl. peptide injection (100 μM, 20 μL) 24 h after CFA, n=8.
[4] abbreviates: peptide 100 μM 6 h before and immediately after plantar incision.

Ends that are not written are not given here. Peptide text beside a SMILES is read from it. * marks the point of attachment. Myristoyl = CCCCCCCCCCCCCC(=O)*

AP2 complex, sequence (O94973 1-621 limits assumed): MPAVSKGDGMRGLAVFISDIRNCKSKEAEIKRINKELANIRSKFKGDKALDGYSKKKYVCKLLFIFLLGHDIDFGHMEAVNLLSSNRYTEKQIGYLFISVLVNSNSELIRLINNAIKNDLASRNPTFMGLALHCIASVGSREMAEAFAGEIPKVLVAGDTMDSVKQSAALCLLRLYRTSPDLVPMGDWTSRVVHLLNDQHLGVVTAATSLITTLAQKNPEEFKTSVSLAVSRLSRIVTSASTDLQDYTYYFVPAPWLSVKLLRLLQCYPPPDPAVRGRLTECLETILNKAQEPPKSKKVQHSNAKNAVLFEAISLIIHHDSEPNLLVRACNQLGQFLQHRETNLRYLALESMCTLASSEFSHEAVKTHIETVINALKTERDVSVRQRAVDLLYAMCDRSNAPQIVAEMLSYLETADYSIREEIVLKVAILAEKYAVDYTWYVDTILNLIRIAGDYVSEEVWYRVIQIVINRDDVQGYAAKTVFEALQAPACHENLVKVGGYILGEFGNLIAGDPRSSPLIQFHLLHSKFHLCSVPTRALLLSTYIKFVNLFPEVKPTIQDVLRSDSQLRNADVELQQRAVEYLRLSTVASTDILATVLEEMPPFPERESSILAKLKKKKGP
AP2 complex, sequence (P53680 whole entry): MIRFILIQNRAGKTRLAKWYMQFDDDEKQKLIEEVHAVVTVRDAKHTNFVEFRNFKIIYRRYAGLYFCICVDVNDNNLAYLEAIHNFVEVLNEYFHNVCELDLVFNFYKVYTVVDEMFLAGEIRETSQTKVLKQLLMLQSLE
AP2 complex, sequence (P63010 1-591 partner limits assumed): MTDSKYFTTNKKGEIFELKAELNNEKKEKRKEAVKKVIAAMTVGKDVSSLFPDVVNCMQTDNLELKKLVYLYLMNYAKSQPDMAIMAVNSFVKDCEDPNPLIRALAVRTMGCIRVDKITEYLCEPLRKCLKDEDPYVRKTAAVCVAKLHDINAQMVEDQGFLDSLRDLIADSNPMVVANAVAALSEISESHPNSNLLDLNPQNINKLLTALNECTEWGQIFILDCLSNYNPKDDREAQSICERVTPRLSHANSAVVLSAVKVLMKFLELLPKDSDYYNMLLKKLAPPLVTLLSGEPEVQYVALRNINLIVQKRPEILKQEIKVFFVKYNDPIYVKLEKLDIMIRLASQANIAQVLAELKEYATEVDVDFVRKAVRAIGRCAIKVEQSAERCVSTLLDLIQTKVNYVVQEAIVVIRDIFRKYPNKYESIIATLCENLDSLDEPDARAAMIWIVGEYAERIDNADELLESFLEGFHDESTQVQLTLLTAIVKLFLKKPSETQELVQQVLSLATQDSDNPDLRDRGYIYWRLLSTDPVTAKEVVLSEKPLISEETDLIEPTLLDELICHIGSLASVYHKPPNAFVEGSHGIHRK
AP2 complex, sequence (Q96CW1 whole entry partner): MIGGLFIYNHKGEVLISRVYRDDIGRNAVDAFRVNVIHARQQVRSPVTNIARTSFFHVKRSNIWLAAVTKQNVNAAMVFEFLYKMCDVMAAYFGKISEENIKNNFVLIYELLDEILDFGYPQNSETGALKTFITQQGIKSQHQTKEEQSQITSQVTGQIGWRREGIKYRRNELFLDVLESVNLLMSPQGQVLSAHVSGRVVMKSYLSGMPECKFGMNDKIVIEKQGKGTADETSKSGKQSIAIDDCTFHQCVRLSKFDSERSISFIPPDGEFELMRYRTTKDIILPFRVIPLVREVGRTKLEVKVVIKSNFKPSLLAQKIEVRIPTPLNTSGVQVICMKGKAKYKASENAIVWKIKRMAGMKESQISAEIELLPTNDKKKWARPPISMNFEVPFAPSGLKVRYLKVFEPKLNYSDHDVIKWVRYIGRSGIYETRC

In the case of `CCCCCCCCCCCCCC(=O)N[C@@H](CCCNC(=N)N)C(=O)N[C@@H](CCSC)C(=O)N[C@@H](CO)C(=O)N[C@@H](CCC(=O)O)C(=O)N[C@H](C(=O)N[C@@H](CCCCN)C(=O)N[C@@H](CCCNC(=N)N)C(=O)N[C@@H](CC(C)C)C(=O)N[C@@H](CC(C)C)C(=O)N[C@@H](CO)C(=O)N[C@@H](CCC(=O)O)C(=O)O)[C@@H](C)CC` [AP2 inhibitor peptide, RMSEIKRLLSE (SEQ ID NO: 1)] (Myristoyl-RMSEIKRLLSE-OH; N-terminus and C-terminus assumed), the “granuloma-like clustering of immune cells” value in the data set with rat hind paws (24 hours following incision, n=2) is reported as “dense clustering of immune cells”. In addition, the changes in gait result with rat hind paws (after injection of the peptide) was “did not potentiate any observable changes”. In addition, the Kd at AP2 complex is 650 nM.
“IERLSEMSLRK (SEQ ID NO: 6) [scrambled peptide]”: the “cumulative phase 2 paw licking behavior” value in the data set on C57BL/6 mice [1] (single i.pl. peptide injection (100 μM, 20 μL) 24 h before 5% formalin, n=6) is on record as 184±22. In the data set with C57BL/6 mice [2] (24 h after CFA, before the single i.pl. peptide injection, n=8), the “paw withdrawal latency day-1” value came out at 2.4 ± 0.3 s. The “tau (τ), time constant of thermal sensitivity recovery” value (“tau (τ), time constant” below) in the data set with C57BL/6 mice [2] (all animals, first order exponential decay fit) stood at 4.82. In addition, the “tau (τ), time constant” value in the data set with C57BL/6 mice [2] (female mice, exponential decay fit) worked out at 3.23. Moreover, in the data set with C57BL/6 mice [2] (male mice, exponential decay fit), the “tau (τ), time constant” value was found to be 6.45. For the same compound, in the data set on C57BL/6 mice [2] (setting [3]), the “paw withdrawal latency day-2” value worked out at 3.8 ± 0.5 s, the “paw withdrawal latency day-3” value was 3.8 ± 0.4 s, the “paw withdrawal latency day-5” value stood at 5.5 ± 0.6 s and the “paw withdrawal latency day-9” value was found to be 7.0 ± 0.8 s. For the same compound, in the data set on rats (all rats), the “tau (τ), rate of recovery following incision” value (from here on “tau (τ), rate”) is recorded as 9.09. The “tau (τ), rate” value with rats (female rats) was determined as 11.72. In addition, in the data set with rats (male rats), the “tau (τ), rate” value amounted to 7.46. Moreover, in the data set with rats (setting [4]), the “paw withdrawal latency day-1” value stood at 5.7 ± 0.4 s, the “paw withdrawal latency day-2” value was 6.4 ± 0.4 s, the “paw withdrawal latency day-3” value came out at 7.4 ± 0.5 s and the “paw withdrawal latency day-4” value amounted to 7.4 ± 0.5 s. Besides, in the data set with rats (setting [4]), the “paw withdrawal latency day-5” value was determined as 8.3 ± 0.6 s, the “paw withdrawal latency day-6” value was found to be 8.6 ± 0.5 s, the “paw withdrawal latency day-7” value amounted to 11.7 ± 0.6 s and the “paw withdrawal latency day-8” value worked out at 11.4 ± 0.4 s. In addition, the “paw withdrawal latency day-9” value in the data set with rats (setting [4]) came out at 12.0 ± 0.6 s.
Consider “RASDKQTLLPNQ (SEQ ID NO: 5) (also: phosphorylated, site not given here) [P4, di-leucine based peptide, parent protein CD3, phosphorylated]”, for which the “nocifensive (licking and lifting) behaviors” value in the data set with C57BL/6 mice [1] (di-leucine peptide analogs, 5% formalin, n=3 per analog) is “significant decreases”.
